{
  "source": "paper PMC10728852",
  "about": "“In Vitro and In Vivo Antidiabetic, α-Glucosidase Inhibition and Antibacterial Activities of Three Brown Algae, Polycladia myrica, Padina antillarum, and Sargassum boveanum, and a Red Alga, Palisada perforata from the Persian Gulf” (Iranian Journal of Pharmaceutical Research : IJPR, 2023)",
  "target": "T1, yeast's α-glucosidase",
  "T1 construct": "gene MAL12; yeast enzyme",
  "assay": "colorimetric α-glucosidase inhibition assay",
  "format": "biochemical, Saccharomyces cerevisiae",
  "details": "standard drug; substrate and buffer only in supplement",
  "excerpt": "colorimetric α-glucosidase inhibition assay on yeast's α-glucosidase",
  "data": [
    {"smiles": "C[C@H]1O[C@H](O[C@H]2[C@H](O)[C@@H](O)[C@@H](O[C@H]3[C@H](O)[C@@H](O)C(O)O[C@@H]3CO)O[C@@H]2CO)[C@H](O)[C@@H](O)[C@@H]1N[C@H]1C=C(CO)[C@@H](O)[C@H](O)[C@H]1O", "note": "(stereo partly shown) [Acarbose]", "values": [
      {"measurement": "Enzyme Inhibition IC50", "value": "160.15 ± 27.52", "unit": "µg/mL"}
    ]}
  ]
}
